Consider 9 compounds from patent US10206902B2, “Mono- or di-substituted indoles as dengue viral replication inhibitors” (priority 2014, dated 2019).

Common to all, as to format: cell-based
One test has as its system DENV-1 strain TC974#666. Put plainly: Tetravalent RT-qPCR assay Protocol A, serotype 1. To be noted: Dengue virus, DENV1, 72 h, RT-qPCR serotype 1 TC974#666, Vero cells, day 3. The method, then:
(§1) The antiviral activity of the compounds of the invention was tested against DENV-1 strain TC974#666 (NCPV), DENV-2 strain 16681, DENV-3 strain H87 (NCPV) and DENV-4 strains H241 (NCPV) and EDEN (SG/06K2270DK1/2005; GenBank accession number QG398256) in a RT-qPCR assay. Therefore, Vero cells were infected with either DENV-1, or -2, or -3, or -4 in the presence or absence of test compounds. At day 3 post-infection, the cells were lysed and cell lysates were used to prepare cDNA of both a viral target (the 3′UTR of DENV; table 2) and a cellular reference gene (β-actin, table 2). Subsequently, a duplex real time PCR was performed on a Lightcycler480 instrument. The generated Cp value is inversely proportional to the amount of RNA expression of these targets. Inhibition of DENV replication by a test compound result in a shift of Cp's for the 3′UTR gene. On the other hand, if a test compound is toxic to the cells, a similar effect on β-actin expression will be observed. The comparative ΔΔCp method is used to calculate EC50, which is based on the relative gene expression of the target gene (3′UTR) normalized with the cellular housekeeping gene (β-actin). In addition, CC50 values were determined based on the Cp values acquired for the housekeeping gene β-actin.
(§2) The culture medium consisted of minimal essential medium supplemented with 2% of heat-inactivated fetal calf serum, 0.04% gentamycin (50 mg/mL) and 2 mM of L-glutamine. Vero cells, obtained from ECACC, were suspended in culture medium and 75 μL/well was added in 96-well plates (10000 cells/well), which already contain the antiviral compounds. Typically, these plates contain a 4-fold serial dilution of 9 dilution steps of the test compound at 200 times the final concentration in 100% DMSO (500 nL; final concentration range: 25 μM-0.00038 μM). In addition, each plate contains wells which are assigned as virus controls (containing cells and virus in the absence of compound) and cell controls (containing cells in the absence of virus and compound). Once the cells were added in the plates, the plates were incubated in a fully humidified incubator (37° C., 5% CO2) until the next day. Then, DENV-1 strain TC974#666, DENV-2 strain 16681, DENV-3 strain H87 or DENV-4 strains H241 or EDEN were added. […] In parallel, 25 μL of culture medium was added to the cell controls. Next, the plates were incubated for 3 days in a fully humidified incubator (37° C., 5% CO2). After 3 days, the supernatant was removed from the wells and the cells were washed twice with ice-cold PBS (˜100 μL). The cell pellets within the 96-well plates were stored at −80° C. for at least 1 day. Next, RNA was extracted using the Cells-to-CT™ lysis kit, according to the manufacture's guideline (Applied Biosystems). The cell lysates can be stored at −80° C. or immediately used in the reverse transcription step. In preparation of the reverse transcription step, mix A (table 3A) was prepared and 7.57 μL/well was dispensed in a 96-well plate. After addition of 5 μL of the cell lysates, a five minute denaturation step at 75° C. was performed (table 3B). Afterwards, 7.43 μL of mix B was added (table 3C) and the reverse transcription step was initiated (table 3D) to generate cDNA.
(§3) Finally, a RT-qPCR mix was prepared, mix C (table 4A), dispensed in 96-well LightCycler qPCR plates to which 3 μL of cDNA was added and the qPCR was performed according to the conditions in table 4B on a LightCycler 480. Using the LightCycler software and an in-house LIMS system, dose response curves for each compound were calculated and the half maximal effective concentration (EC50) and the half maximal cytotoxic concentration (CO50) were determined (Tables 6-9).

A further test has as its system DENV-3 strain H87. Put plainly: Tetravalent RT-qPCR assay Protocol A, serotype 3. To be noted: Dengue virus, DENV3, 72 h, RT-qPCR serotype 3 H87, Vero cells, day 3. The method, then:
as §1, §2, §3
(In qPCR the cycle at which signal appears reflects the starting amount.)

The next test deals with DENV-4 strain H241. Kind of test: Tetravalent RT-qPCR assay Protocol A, serotype 4 H241. As to conditions: Dengue virus, DENV4, 72 h, RT-qPCR serotype 4 H241, Vero cells, day 3. The protocol: as §1, §2, §3
The next test has as its system DENV-4 strain EDEN. Kind of test: Tetravalent RT-qPCR assay Protocol A, serotype 4 EDEN. To be noted: Dengue virus, DENV4, 72 h, RT-qPCR serotype 4 EDEN, Vero cells, day 3. The protocol:
as §1, §2, §3

The subject of a further test is DENV-2 NGC-Tongalike. Put plainly: Tetravalent RT-qPCR assay Protocol B, serotype 2. To be noted: Dengue virus, DENV2, Vero, 96 h. The protocol: (§4) Vero cells (4×10^4) were seeded in 96-well plates. […] Following a 2 hour incubation period, the cell monolayer was washed 3 times with assay medium to remove residual, non-adsorbed virus and cultures were further incubated for either 4 days (DENV-2 NGC-Tongalike) or 7 days (DENV-1 Djibouti strain D1/H/IMTSSA/98/606, DENV-3 strain H87 prototype, DENV-4 strain H241′) in the presence of the inhibitor. Supernatant was harvested and viral RNA load was determined by real-time quantitative RT-PCR. The 50% effective concentration (EC50), which is defined as the compound concentration that is required to inhibit viral RNA replication by 50%, was determined using logarithmic interpolation (Tables 7 and 8). RNA was isolated from 100 μL supernatant with the NucleoSpin 96 Virus kit (Filter Service, Duren, Germany) as described by the manufacturer. The sequences of the TaqMan primers (DENV-For, DENV-Rev; Table 5) and TaqMan probes (DENV-Probe Table 5) were selected from non-structural gene 3 (NS3) or NS5, of the respective flaviviruses using Primer Express software (version 2.0; Applied Biosystems, Lennik, Belgium). The TaqMan probe was fluorescently labelled with 6-carboxyfluorescein (FAM) at the 5′ end as the reporter dye, and with minor groove binder (MGB) at the 3′ end as the quencher (Table 5). One-step, quantitative RT-PCR was performed in a total volume of 25 μL, containing 13.9375 μL H2O, 6.25 μL master mix (Eurogentec, Seraing, Belgium), 0.375 μL forward primer, 0.375 μL reverse primer, 1 μL probe, 0.0625 μL reverse transcriptase (Eurogentec) and 3 μL sample. RT-PCR was performed using the ABI 7500 Fast Real-Time PCR System (Applied Biosystems, Branchburg, N.J., USA) using the following conditions: 30 min at 48° C. and 10 min at 95° C., followed by 40 cycles of 15 s at 95° C. and 1 min at 60° C. The data was analyzed using the ABI PRISM 7500 SDS software (version 1.3.1; Applied Biosystems). For absolute quantification, standard curves were generated using 10-fold dilutions of template preparations of known concentrations.

The subject of test [1] is DENV-3 strain H87 prototype. Kind of test: Tetravalent RT-qPCR assay Protocol B, serotype 3. To be noted: Dengue virus, DENV3, 168 h, RT-qPCR serotype 3 H87, Vero cells, 7 days. The protocol:
as §4

`COc1cc(NC(C(=O)c2c[nH]c3cc(F)ccc23)c2ccc(F)cc2OC)cc(OCCO)c1` (single isomer, unassigned) [Compound 1A, 1-(6-fluoro-1H-indol-3-yl)-2-(4-fluoro-2-methoxyphenyl)-2-((3-(2-hydroxyethoxy)-5-methoxyphenyl)amino)ethanone]: the EC50 amounted to 0.018 µM in the test with DENV-1 strain TC974#666; 0.12 µM with DENV-3 strain H87; 0.48 µM in the test on DENV-4 strain H241; 0.012 µM in the test on DENV-4 strain EDEN; 0.001 µM with DENV-2 NGC-Tongalike; 0.053 µM in test [1].

Regarding `COc1cc(NC(C(=O)c2c[nH]c3c(C)c(F)ccc23)c2ccc(F)cc2OC)cc(OCCO)c1` (single isomer, unassigned) [Compound 2B, 2-(4-fluoro-2-methoxyphenyl)-1-(6-fluoro-7-methyl-1H-indol-3-yl)-2-((3-(2-hydroxyethoxy)-5-methoxyphenyl)amino)ethanone], the EC50 was determined as 0.013 µM with DENV-1 strain TC974#666; 0.11 µM in the test with DENV-3 strain H87; 0.32 µM with DENV-4 strain H241; 0.011 µM in the test on DENV-4 strain EDEN; 0.00081 µM with DENV-2 NGC-Tongalike; 0.042 µM in test [1].

As to `COc1cc(NC(C(=O)c2c[nH]c3c(C)c(Cl)ccc23)c2ccc(F)cc2OC)cc(OCCO)c1` (single isomer, unassigned) [Compound 3A, 1-(6-chloro-7-methyl-1H-indol-3-yl)-2-(4-fluoro-2-methoxyphenyl)-2-((3-(2-hydroxyethoxy)-5-methoxyphenyl)amino)ethanone], the EC50 in the test with DENV-1 strain TC974#666 was 0.016 µM; with DENV-3 strain H87, 0.088 µM; in the test on DENV-4 strain H241 it was 0.24 µM; in the test on DENV-4 strain EDEN, 0.016 µM; in the test with DENV-2 NGC-Tongalike it was under 0.00028 µM; in test [1], 0.032 µM.

As for `COc1cc(NC(C(=O)c2c[nH]c3cc(Cl)ccc23)c2ccc(F)cc2OC)cc(OCCO)c1` (single isomer, unassigned) [Compound 4A, 1-(6-chloro-1H-indol-3-yl)-2-(4-fluoro-2-methoxyphenyl)-2-((3-(2-hydroxyethoxy)-5-methoxyphenyl)amino)ethanone], the 50% effective concentration (EC50) was 0.02 µM in the test with DENV-1 strain TC974#666; 0.14 µM in the test on DENV-3 strain H87; 0.4 µM in the test with DENV-4 strain H241; 0.016 µM in the test with DENV-4 strain EDEN; under 0.00029 µM with DENV-2 NGC-Tongalike; 0.016 µM in test [1].

Regarding `COc1cc(NC(C(=O)c2c[nH]c3c(F)c(F)ccc23)c2ccc(F)cc2OC)cc(OCCO)c1` (single isomer, unassigned) [Compound 5B, 1-(6,7-difluoro-1H-indol-3-yl)-2-(4-fluoro-2-methoxyphenyl)-2-((3-(2-hydroxyethoxy)-5-methoxyphenyl)amino)ethanone], the EC50 in the test on DENV-1 strain TC974#666 was 0.027 µM; in the test with DENV-3 strain H87 it was 0.19 µM; with DENV-4 strain H241, 0.45 µM; in the test with DENV-4 strain EDEN, 0.024 µM; in the test on DENV-2 NGC-Tongalike, 0.00044 µM; in test [1], 0.05 µM.

`COc1cc(NC(C(=O)c2c[nH]c3cc(OC)c(C)cc23)c2ccc(F)cc2OC)cc(OCCO)c1` (single isomer, unassigned) [Compound 6A, 2-(4-fluoro-2-methoxyphenyl)-2-((3-(2-hydroxyethoxy)-5-methoxyphenyl)amino)-1-(6-methoxy-5-methyl-1H-indol-3-yl)ethanone]: the 50% effective concentration (EC50) in the test with DENV-1 strain TC974#666 is 0.016 µM; with DENV-3 strain H87, 0.13 µM; with DENV-4 strain H241 it was 0.2 µM; in the test with DENV-4 strain EDEN it was 0.013 µM; in the test on DENV-2 NGC-Tongalike, under 0.00035 µM; in test [1], 0.02 µM.

As for `COc1cc(NC(C(=O)c2c[nH]c3cc(OC)c(F)cc23)c2ccc(F)cc2OC)cc(OCCO)c1` (single isomer, unassigned) [Compound 7A, 2-(4-fluoro-2-methoxyphenyl)-1-(5-fluoro-6-methoxy-1H-indol-3-yl)-2-((3-(2-hydroxyethoxy)-5-methoxyphenyl)amino)ethanone], the EC50 in the test on DENV-1 strain TC974#666 came to 0.029 µM; in the test with DENV-3 strain H87, 0.19 µM; with DENV-4 strain H241, 0.47 µM; in the test with DENV-4 strain EDEN it was 0.023 µM; with DENV-2 NGC-Tongalike it was 0.0016 µM; in test [1] it was 0.041 µM.

As for `COc1cc(NC(C(=O)c2c[nH]c3c(Cl)c(OC)ccc23)c2ccc(F)cc2OC)cc(OCCO)c1` (single isomer, unassigned) [Compound 8A, 1-(7-chloro-6-methoxy-1H-indol-3-yl)-2-(4-fluoro-2-methoxyphenyl)-2-((3-(2-hydroxyethoxy)-5-methoxyphenyl)amino)ethanone], the half-maximal effective concentration (EC50) in the test on DENV-1 strain TC974#666 is 0.032 µM; with DENV-3 strain H87, 0.2 µM; with DENV-4 strain H241, 0.52 µM; in the test on DENV-4 strain EDEN, 0.021 µM; with DENV-2 NGC-Tongalike, under 0.00024 µM; in test [1], 0.029 µM.

`COc1cc(NC(C(=O)c2c[nH]c3c(C)cc(F)cc23)c2ccc(F)cc2OC)cc(OCCO)c1` (single isomer, unassigned) [Compound 9B, 2-(4-fluoro-2-methoxyphenyl)-1-(5-fluoro-7-methyl-1H-indol-3-yl)-2-((3-(2-hydroxyethoxy)-5-methoxyphenyl)amino)ethanone]: the concentration for a half-maximal effect (EC50) with DENV-1 strain TC974#666 was 0.019 µM; in the test on DENV-3 strain H87, 0.19 µM; in the test on DENV-4 strain H241 it was 0.39 µM; in the test on DENV-4 strain EDEN, 0.02 µM; in the test with DENV-2 NGC-Tongalike, 0.0008 µM; in test [1], 0.066 µM.

Usually EC50 stands for the concentration giving half of the maximal effect. A lower EC50 goes with an effect from little substance.
